According to US20110236312A1, “NUCLEOSIDE ANALOGUES USEFUL AS POSITRON EMISSION TOMOGRAPHY (PET) IMAGING AGENTS” (IMPERIAL INNOVATIONS LIMITED, priority 2008, published 2011):

How the values were obtained:
HCT116 tumour = experiment: Dynamic PET imaging of tumour bearing mice; type: in vivo
Description: All animal experiments were done by licensed investigators in accordance with the United Kingdom Home Office Guidance on the Operation of the Animal (Scientific Procedures) Act 1986 and within guidelines set out by the United Kingdom Coordinating Committee for Cancer Research's Ad hoc Committee on Welfare of Animals in Experimental Neoplasia. Both tumour-bearing (Balb/c nude mice) and non-tumour bearing (Balb/c mice) animals were used. Human colon, HCT116, tumours were grown in Balb/c nu/nu mice (Harlan) as previously reported. Tumour dimensions were measured continuously using a caliper and tumour volumes were calculated by the equation: volume=(π/6)×a×b×c, where a, b, and c represent three orthogonal axes of the tumour. Mice were used when their tumours reached approximately 100 mm^3
Dynamic [^18F]FTT imaging scans were carried out on a dedicated small animal PET scanner, Siemens Inveon PET module, Siemens Molecular Imaging Inc., Knoxville, USA). The features of this instrument have been described previously. For scanning the tail veins of vehicle- or drug-treated mice were cannulated after induction of anaesthesia (isofluorane/O2/N2O). […] The count densities were averaged for all ROIs at each of the 19 time points to obtain a time versus radioactivity curve (TAC). […]

[1] = Radio-HPLC metabolite analysis; type: in vivo; conditions: HCT116 tumour bearing mice, i.v., 30 min post injection, plasma, liver, kidney, urine, FIG. 5
Description: [^18F]FTT was produced using the method described above. HCT116 tumour bearing mice were injected intravenously via the lateral tail vein with [^18F]FTT (3.7 MBq) and after 30 min post injection were sacrificed by exsanguination via cardiac puncture under isofluorane anesthesia and then tissue removed. Samples were then snap frozen using dry ice and stored until use. To plasma (0.2 ml) was added ice-cold acetonitrile (1.5 ml) and the sample centrifuged (3 min, 4° C., 15493×g). The supernatant was then decanted and evaporated to dryness using a rotary evaporator (bath temperature 40° C.). The sample was then redissolved in 10% ethanol in PBS (1.1 ml) and filtered through a 0.22 μm filter and then injected. Tumour, liver and kidney samples were homogenised in ice-cold acetonitile (1.5 ml) using an IKA Turrax homogeniser and then processed as for plasma samples. Urine samples were diluted with 10% ethanol in PBS (1.1 ml) and filtered through a 0.22 μm filter and then injected.
HPLC conditions: Agilent 1100 series HPLC system (Agilent Technologies, Stockport, UK) equipped with a γ-RAM Model 3 gamma-detector (IN/US Systems Inc., Florida, USA) and the Laura 3 software (LabLogic, Sheffield, UK). […]

HCT116 cells = experiment: Acid insoluble fraction measurements (radiotracer incorporation into DNA); type: cell-based; conditions: HCT116 human colon cancer cells in culture
Description: Acid extraction was performed to separate radioactivity associated with small molecules, RNA, and proteins from that of DNA. HCT116 cells were cultured in triplicate in 100 mm dishes and the cells were used for DNA extraction at 24 hr. Briefly 5 ml of the assay medium containing 50 μCi of tracer was added to each dish and the dishes incubated at 37° C. for 60 min. After incubation, the medium was removed, and cells were washed twice with ice-cold phosphate-buffered saline (PBS) and 100 μl aliquots of the washings were placed in counting tubes for counting. After washing, the cells were harvested by scraping, collected into counting tubes and then centrifuged at 1200 g at 4° C. for 10 minutes. The cells were homogenized in 1 mL of ice-cold 10% perchloric acid ([…] and centrifuged. The acid-soluble fraction (supernatant) was removed and 100 μl aliquots were counted in a gamma counter. The radioactivity in the acid-insoluble precipitate (largely DNA) was counted separately.

In the case of `Cc1cn([C@H]2C[C@H](O)[C@@H](CO)S2)c(=O)n(Cc2cn(CC[18F])nn2)c1=O` [[^18F]FTT, [^18F]N^3-((1-(2-Fluoroethyl)-1H-[1,2,3]-triazol-4-yl)methyl)-4′-thio-β-thymidine], the “tissue pharmacokinetics (time versus radioactivity curves)” value (HCT116 tumour; 60 min dynamic scan, FIG. 4) is reported as “simple tissue pharmacokinetics”, the “localisation on PET images” value (HCT116 tumour; i.v. via tail vein, FIG. 3) is reported as “localisation in tumour, kidney, liver and the early part of the small intestines” and the metabolic stability [1] is reported as “metabolically stable in mice”. For the same compound, the “incorporation into tumour cells in culture” value (HCT116 cells) was “readily incorporated”.
